US9012365B2, “Compatibility agents for herbicidal formulations comprising 2,4-(Dichlorophenoxy) acetic acid salts” (priority 2006, dated 2015)

Experiments:
[1] = System appearance and pH after adding chemicals into System A; type: physicochemical
Description: System appearance after adding various chemicals into “System A” which was 100 g of 3% 2,4-D DMA (50%)+90% water (1000 ppm)+7% Ammonium sulfate (40%).

[2] = Appearance of 10 g solution of (2.5 wt % ai 2,4-D DMA + tested chemical) after adding 40% AMS; type: physicochemical; conditions: 2.5 wt % ai 2,4-D DMA; for Addition Weight of 40% AMS: System was clear after adding / Addition Weight of 40% AMS: System was cloud after adding: 10 g solution
Method: In this example, the appearance of a 10 g solution of (2.5 wt % ai 2,4-D DMA+tested chemical) was evaluated after adding 40% AMS

[3] = added into 100 g System A, added wt 0.815 g Ethoquad, 0.079 g NH4OH, 0.091 g dimethylamine, 1.07 g NaOH
[4] = added wt 1.35 grams into 100 g System A
[5] = 0.13 wt % a.i. of tested chemical, 0 gram 40% AMS
[6] = 0.13 wt % a.i. of tested chemical
[7] = 1.25 wt % a.i. of tested chemical

0 gram Appearance [2, 5] | Addition Weight of 40% AMS: System was clear after adding [2, 6] | Addition Weight of 40% AMS: System was cloud after adding [2, 6] [grams] | Compound | also measured
 |  |  | CNC [Dimethylamine 40%, Dimethylamine] | Appearance [1, 3]: slightly hazy; pH [1, 3]: 7.8
 |  |  | [Na+].[OH-] [10% NaOH, NaOH] | Appearance [1, 3]: clear; pH [1, 3]: 6; Appearance [1, 4]: crystals re-appeared; pH [1, 4]: 10
 |  |  | N.O [NH4OH 28-30%, NH4OH] | Appearance [1, 3]: hazy; pH [1, 3]: 8
Clear | 0.619 grams | 0.669 | C10-12 alcohol ethoxylate (12EO) | 
Clear | 2.038 grams | 2.123 | Cocotrimethyl Chloride | 
Clear | 0.279 grams | 0.521 | Castor oil ethoxylate-20EO | 
Clear | 1.037 grams | 1.25 | Ethoxylated (20EO) sorbitol ester | 
Clear | 0.557 grams | 0.685 | Trideceth-10 | 
Clear | 0.519 grams | 0.72 | C10-12 alcohol ethoxylate (9EO) | 
 |  |  | Triethyl ammonium phosphate | 0 gram Appearance [2, 7]: Clear; Addition Weight of 40% AMS: System was clear after adding [2, 7]: 0.303 grams; Addition Weight of 40% AMS: System was cloud after adding [2, 7]: 0.535 grams
Clear | 0.43 grams | 0.526 | 2-propylheptanol-8EO | 
Clear | 1.732 grams | 2.045 | Iso C13 etheramine-5EO | 
Clear | 0.665 grams | 0.829 | Di (propylene glycol) methyl ether | 
 |  |  | Na Cocoamphocarboxyglycinate | 0 gram Appearance [2, 7]: Clear; Addition Weight of 40% AMS: System was clear after adding [2, 7]: 0.25 grams; Addition Weight of 40% AMS: System was cloud after adding [2, 7]: 0.508 grams
Clear | 1.454 grams | 1.541 | Cocoamine-10EO | 
very cloudy | very cloudy | 0 | Castor oil ethoxylate | 
 |  |  | Octyliminodipropionate | 0 gram Appearance [2, 7]: Clear; Addition Weight of 40% AMS: System was clear after adding [2, 7]: 0.283 grams; Addition Weight of 40% AMS: System was cloud after adding [2, 7]: 0.602 grams
Clear | 0.581 grams | 0.688 | Trideceth-12 | 
Clear | 1.488 grams | 1.731 | Cocodimethylamidopropylamine | 
Clear | 1.591 grams | 2.243 | Tall oil fatty acid amidoamine-10EO | 

Compound | 0 gram Appearance [2, 5] | Addition Weight of 40% AMS: System was clear after adding [2, 6] | Addition Weight of 40% AMS: System was cloud after adding [2, 6] [grams] | also measured
Nonylphenol-6EO (5EO) | Hazy | Hazy | 0 | 
